Test results published in US10611778B2, “Fused bicyclic inhibitors of menin-MLL interaction” (Janssen Pharmaceutica NV, priority 2016, dated 2020).
pIC50: −log10 of the molar value.

Legend:
[1] = target: T1, Menin/MLL (menin, FITC-MBM1 peptide) (Homo sapiens, UniProt O00255, T541A); assay: Menin/MLL fluorescence polarization (FP) assay; assay type: binding; details: averaged values over all measurements; read-out: Menin FP assay (IC50)
T1 construct: 6xHis (C)
T1 sequence (O00255 with tags, fused parts or gaps T541A): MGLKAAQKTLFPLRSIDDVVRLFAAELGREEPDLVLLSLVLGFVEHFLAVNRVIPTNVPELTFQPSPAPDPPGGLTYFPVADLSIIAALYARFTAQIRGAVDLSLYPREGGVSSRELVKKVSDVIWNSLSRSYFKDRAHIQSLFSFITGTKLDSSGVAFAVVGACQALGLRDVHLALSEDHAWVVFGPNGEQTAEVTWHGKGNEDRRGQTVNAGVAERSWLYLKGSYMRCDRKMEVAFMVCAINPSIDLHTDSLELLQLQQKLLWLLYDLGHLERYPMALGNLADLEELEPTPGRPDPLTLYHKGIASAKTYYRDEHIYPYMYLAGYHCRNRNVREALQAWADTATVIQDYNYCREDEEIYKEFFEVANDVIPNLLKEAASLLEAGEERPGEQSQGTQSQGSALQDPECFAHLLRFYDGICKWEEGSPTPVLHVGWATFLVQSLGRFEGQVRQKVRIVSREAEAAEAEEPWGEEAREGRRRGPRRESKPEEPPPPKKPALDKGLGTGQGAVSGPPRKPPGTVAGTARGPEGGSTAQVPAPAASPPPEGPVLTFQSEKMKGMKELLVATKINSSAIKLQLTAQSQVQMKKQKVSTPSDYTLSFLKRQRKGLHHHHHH
Protocol: Pharmacological Part 1) Menin/MLL Fluorescence Polarization Assay
To a non-surface binding, black 384-well microtiter plate was added 50 nL 160× test compound in DMSO and 4 μL 2× menin in assay buffer (40 mM Tris-HCl, pH 7.5, 50 mM NaCl, 1 mM DTT and 0.001% Tween 20). After incubation of test compound and menin for 10 min at ambient temperature, 4 μL 2×FITC-MBM1 peptide (FITC-β-alanine-SARWRFPARPGT-NH2) in assay buffer was added, the microtiter plate centrifuged at 1000 rpm for 1 min and the assay mixtures incubated for 15 min at ambient temperature. The relative amount of menin: FITC-MBM1 complex present in an assay mixture is determined by measuring the fluorescence polarization (FP) of the FITC label with a BMG Pherastar plate reader (ex. 485 nm/em. 520 nm) at ambient temperature. The final concentrations of reagents in the binding assay are 100 nM menin, 5 nM FITC-MBM1 peptide and 0.625% DMSO in assay buffer. Dose-response titrations of test compounds are conducted using an 11 point, three-fold serial dilution scheme, starting at 31 μM.
Compound potencies were determined by first calculating % inhibition at each compound concentration according to equation 1: % inhibition=((HC−LC)−(FP^compound−LC))/(HC−LC))*100 (Eqn 1)
(§1) Where LC and HC are the FP values of the assay in the presence or absence of a saturating concentration of a compound that competes with FITC-MBM1 for binding to menin, and FP^compound is the measured FP value in the presence of the test compound. HC and LC FP values represent an average of at least 16 replicates per plate.
(§2) Where Bottom and Top are the lower and upper asymptotes of the dose-response curve, respectively, IC50 is the concentration of compound that yields 50% inhibition of signal and h is the Hill coefficient.

[2] = target: T2, Menin/MLL (terbium chelate-labeled menin, FITC-MBM1 peptide) (Homo sapiens, UniProt O00255, T541A); assay: Menin/MLL homogenous time-resolved fluorescence (HTRF) assay; assay type: binding; details: averaged values over all measurements; read-out: Menin HTRF assay (IC50)
T2 construct: Menin (a.a. 1-610-6×his tag) was labeled with terbium cryptate as follows
T2 sequence (O00255 with tags, fused parts or gaps T541A): T1 sequence (O00255 with tags, fused parts or gaps T541A)
Protocol: 3) Menin/MLL Homogenous Time-Resolved Fluorescence (HTRF) Assay
To an untreated, white 384-well microtiter plate was added 40 nL 200× test compound in DMSO and 4 μL 2× terbium chelate-labeled menin (vide infra for preparation) in assay buffer (40 mM Tris-HCl, pH 7.5, 50 mM NaCl, 1 mM DTT and 0.05% Pluronic F-127). After incubation of test compound and terbium chelate-labeled menin for 5 min at ambient temperature, 4 μL 2×FITC-MBM1 peptide (FITC-β-alanine-SARWRFPARPGT-NH2) in assay buffer was added, the microtiter plate centrifuged at 1000 rpm for 1 min and the assay mixtures incubated for 15 min at ambient temperature. The relative amount of menin⋅FITC-MBM1 complex present in an assay mixture is determined by measuring the homogenous time-resolved fluorescence (HTRF) of the terbium/FITC donor/acceptor fluorophore pair using a BMG Pherastar plate reader (ex. 337 nm/terbium em. 490 nm/FITC em. 520 nm) at ambient temperature. The degree of fluorescence resonance energy transfer (the HTRF value) is expressed as the ratio of the fluorescence emission intensities of the FITC and terbium fluorophores (F^em 520 nm/F^em 490 nm). The final concentrations of reagents in the binding assay are 100 pM terbium chelate-labeled menin, 75 nM FITC-MBM1 peptide and 0.5% DMSO in assay buffer. Dose-response titrations of test compounds are conducted using an 11 point, three-fold serial dilution scheme, starting at 31 μM.
Compound potencies were determined by first calculating % inhibition at each compound concentration according to equation 1: % inhibition=((HC−LC)−(HTRF^compound−LC))/(HC−LC))*100 (Eqn 1)
as §1, with “HTRF” for “FP”, “HTRF^compound” for “FP^compound”
as §2
Preparation of Terbium cryptate labeling of Menin: Menin (a.a. 1-610-6×his tag) was labeled with terbium cryptate as follows. 2 mg of Menin was buffer exchanged into 1× phosphate buffered saline. 16 uM Menin was incubated with 4-fold molar excess NHS-terbium cryptate (Cisbio Bioassays, Bedford, Mass.) for 2 hours at room temperature. The labeled protein was purified away from free label by running the reaction over a Superdex 200 Increase 10/300 GL column at 0.75 ml/min. Peak fractions were collected, aliquoted and frozen at −80° C.

[3] = test system: MV-4-11; assay: Proliferation assay (spheroid assay) MV-4-11; assay type: cell-based, human; details: Homo sapiens, MV4-11, MV-4-11; averaged values over all measurements; read-out: Spheroid assay MV-4-11 (IC50)
Protocol: (§3) The anti-proliferative effect of menin/MLL protein/protein interaction inhibitor test compounds was assessed in human leukemia cell lines. The cell lines MV-4-11 and MOLM14 harbor MLL translocations and express the MLL fusion proteins MLL-AF4 and MLL-AF9, respectively, as well as the wildtype protein from the second allele. […] K562 and KG1 were used as a control cell lines containing two MLL wildtype alleles in order to exclude compounds that display general cytotoxic effects.
(§4) MV-4-11 and MOLM14 were cultured in RPMI-1640 (Sigma Aldrich) supplemented with 10% fetal bovine serum (HyClone), 2 mM L-glutamine (Sigma Aldrich) and 50 μg/ml gentamycin (Gibco). K562 were propagated in RPMI-1640 (Sigma Aldrich) supplemented with 20% fetal bovine serum (HyClone), 2 mM L-glutamine (Sigma Aldrich) and 50 μg/ml gentamycin (Gibco). KG1 were cultured in Iscove's MDM (Gibco) supplemented with 20% fetal bovine serum (HyClone), 2 mM L-glutamine (Sigma Aldrich) and 50 μg/ml gentamycin (Gibco).
(§5) In order to assess the anti-proliferative effects, 1,500 MV-4-11, 300 MOLM14, 750 K562 or 1,300 KG1 cells were seeded in 200 μl media per well in 96-well round bottom, ultra-low attachment plates (Costar, catalogue number 7007). Cell seeding numbers were chosen based on growth curves to ensure linear growth throughout the experiment. Test compounds were added at different concentrations and the DMSO content was normalized to 0.3%. Cells were incubated for 8 d at 37° C. and 5% CO2. Spheroid like growth was monitored in real-time by live-cell imaging (IncuCyteZOOM, Essenbio, 4× objective) acquiring one image every four hours for 8 d. Confluence (%) as a measure of spheroid size was determined using an integrated analysis tool.
(§6) In order to determine the cumulative effect of the test compounds over time, the area under the curve (AUC) in a plot of confluence against time was calculated. Confluence at the beginning of the experiment (t=0) was used as baseline for the AUC calculation.
(§7) Absolute IC50 values were calculated according to the following procedure: % Control=(AUC sample/AUC control)*100
(§8) AUC control=mean AUC of control values (cells without compound/DMSO as vehicle control)
(§9) A non-linear curve fit was applied using the least squares (ordinary) fit method to the plot of % control versus compound concentration. Based on this, the absolute IC50 value (half maximal inhibitory concentration of the test compound causing an anti-proliferative effect of 50% relative to the vehicle control) was calculated.

[4] = test system: MOLM14; assay: Proliferation assay (spheroid assay) MOLM14; assay type: cell-based, human; details: Homo sapiens, MOLM-14, MOLM14; averaged values over all measurements; read-out: Spheroid assay MOLM14 (IC50)
Protocol: as §3, §4, §5, §6, §7, §8, §9

Row | SMILES | pIC50 [1] | pIC50 [2] | pIC50 [3] | pIC50 [4]
1 | FC(F)(F)Cc1cc2c(N3CC[C@@H]4[C@@H](CCN4Cc4ccccc4)C3)ncnc2s1 (single isomer, unassigned) [Compound 3] | 7.05 | 7.21 | 5.70 | 5.42
2 | Cn1cc(CN2CC[C@@H]3CN(c4ncnc5sc(CC(F)(F)F)cc45)CC[C@@H]32)cn1 (single isomer, unassigned) [Compound 13] | 6.28 |  | 4.86 | < 4.82
3 | Cn1ccc(CN2CC[C@@H]3CN(c4ncnc5sc(CC(F)(F)F)cc45)CC[C@@H]32)n1 (single isomer, unassigned) [Compound 14] | 5.95 |  |  | 
4 | O=S(=O)(c1ccccc1)N1CC[C@H]2CN(c3ncnc4sc(CC(F)(F)F)cc34)CC[C@H]21 (single isomer, unassigned) [Compound 17] | 5.73 |  |  | 
5 | CC(C)CN1CC[C@@H]2CN(c3ncnc4sc(CC(F)(F)F)cc34)C[C@@H]21 (single isomer, unassigned) [Compound 28A] | 5.93 | 5.76 |  | 
6 | CC(C)CN1CC[C@H]2CN(c3ncnc4sc(CC(F)(F)F)cc34)C[C@H]21 (single isomer, unassigned) [Compound 28B] | 5.86 | 5.60 |  | 
7 | Nc1ccc(CN2CC[C@@H]3CN(c4ncnc5sc(CC(F)(F)F)cc45)C[C@@H]3C2)cn1 (single isomer, unassigned) [Compound 105] |  | 7.96 | 6.66 | 
8 | CNc1ccc(CN2CC[C@@H]3CN(c4ncnc5sc(CC(F)(F)F)cc45)C[C@@H]3C2)cn1 (single isomer, unassigned) [Compound 106] |  | 8.00 | 6.72 | 
9 | CNc1cc(CN2CC[C@@H]3CN(c4ncnc5sc(CC(F)(F)F)cc45)C[C@@H]3C2)ccn1 (single isomer, unassigned) [Compound 107] |  | 7.64 | 6.47 | 
10 | O=C(c1ccncc1)N1CCC(CN2CC[C@@H]3CN(c4ncnc5sc(CC(F)(F)F)cc45)C[C@@H]3C2)CC1 (single isomer, unassigned) [Compound 108] |  | 7.64 | 6.06 | 
11 | [CH3][Ge]([CH3])([CH3])[CH2]N1CCC2CN(c3ncnc4sc(CC(F)(F)F)cc34)CCC21 (centres unmarked) [Compound 15] | 6.89 | 6.92 |  | 
12 | O=S(=O)(c1ccccc1)N1CC[C@@H]2CN(c3ncnc4sc(CC(F)(F)F)cc34)CC[C@@H]21 [Compound 16] | 5.82 |  |  | 
13 | Cn1ccnc1CN1CCC2CN(c3ncnc4sc(CC(F)(F)F)cc34)CCC21 (centres unmarked) [Compound 19] | 5.75 | 5.34 |  | 
14 | Cn1cc(CN2CCCC3C2CCN3c2ncnc3sc(CC(F)(F)F)cc23)cn1 (centres unmarked) [Compound 21] | 5.75 | 5.67 |  | 
15 | FC(F)(F)Cc1cc2c(N3CCC4C(CCN4Cc4ncc[nH]4)C3)ncnc2s1 (centres unmarked) [Compound 22] | 5.62 |  |  | 
16 | NCCn1cc(CN2CCC3CN(c4ncnc5sc(CC(F)(F)F)cc45)CCC32)cn1 (centres unmarked) [Compound 26] |  | 7.27 | 5.33 | 5.25
17 | Cn1cc(CN2CC[C@@H]3CN(c4ncnc5sc(CC(F)(F)F)cc45)C[C@@H]32)cn1 [Compound 27A] | 5.34 | 5.00 |  | 
18 | Cn1cc(CN2CC[C@H]3CN(c4ncnc5sc(CC(F)(F)F)cc45)C[C@H]32)cn1 [Compound 27B] | 5.44 | 5.05 |  | 
19 | FC(F)(F)Cc1cc2c(N3C[C@@H]4CN(Cc5ccccc5)[C@@H]4C3)ncnc2s1 [Compound 32] | 5.81 | 5.56 |  | 
20 | FC(F)(F)Cc1cc2c(N3C[C@H]4CN(Cc5ccccc5)[C@H]4C3)ncnc2s1 [Compound 33] | 5.92 | 5.68 |  | 
21 | Cn1cc(CN2CC3CCN(c4ncnc5sc(CC(F)(F)F)cc45)CC3C2)cn1 (centres unmarked) [Compound 34] | 6.11 | 5.70 |  | 
22 | FC(F)(F)Cc1cc2c(N3CCC4C(CCN4Cc4cc[nH]n4)C3)ncnc2s1 (centres unmarked) [Compound 84] | 5.99 | 6.04 |  | 
